Experimental data reported in patent publication US9981906B2, “Trans-clomiphene metabolites and uses thereof” (Repros Therapeutics Inc., priority 2011, dated 2018).

Experiments:
[1] = following a single dose; cited from earlier work
[2] = system: cryopreserved hepatocytes from Beagle dog; assay: Metabolite profile of Androxal in cryopreserved Beagle dog hepatocytes; format: in vitro ADME; conditions: LC/MS
Method: (§1) A study was conducted to determine the metabolic profile of Androxal® in cryopreserved hepatocytes from Sprague-Dawley rat, Beagle dog, cynomolgus monkey, and human. The liver is the main site of drug metabolism and the full complement of hepatic drug metabolizing enzymes (including liver enzymes of the CYP P450 family) are maintained within the intact cell. Isolated liver hepatocytes constitute a physiologically relevant experimental model for the evaluation of liver-related drug properties such as metabolism. Cyropreservation of the hepatocytes greatly enhances their availability for studies.
(§2) Primary hepatocytes isolated from several donors for each animal species and five human donors were pooled according to species and cryopreserved. The hepatocytes were thawed, subjected to Percoll density gradient centrifugation to remove debris and counted to determine yield. Viability was measured using Trypan blue exclusion. The hepatocytes were diluted with CYP assay buffer (Krebs-Hensleit Buffer) to prepare a 2× cell suspension of 2.0×10^6 viable cells/ml. Aliquots of the 2× hepatocyte suspension (0.5 ml containing 1.0×10^6 cells) were transferred to appropriate wells for a final 1× cell density of 1.0×10^6 cells/well. All incubations were conducted at 37±1° C., 95% air/5% CO2, and saturating humidity in 12-well uncoated culture plates. […] The cultures were incubated for 1 and 4 hours. The sample size was N=2 replicates.
(§3) Matrix control samples were included as a source of background matrix components to aid in metabolite identification. Equal volumes of 2× hepatocyte suspension and CYP assay buffer without Androxal® were combined and incubated for 4 hours.
Chemical degradation control samples were included to evaluate the possibility of chemical degradation of Androxal® in the absence of cells. […]
(§4) The incubations were terminated as follows: Metabolic positive control incubations were terminated by adding an equal volume of methanol. All other incubations were terminated by placing the plates on ice. The contents of each well were mixed thoroughly and divided into five cryovials. An equal volume of organic solvent was added to one cryovial. The samples were either immediately analyzed or stored in cryovials at −70°±10 C until analysis.
(§5) All samples were analyzed by reverse-phase HPLC. A UV profile of the samples was obtained followed by liquid chromatography-mass spectrometry (LC/MS) analysis using a Micromass® Q-Tof-2 mass spectrometer capable of conducting accurate mass measurement. Preliminary metabolite identification was aided by the use of Metabolynx® software.
(§6) The relative amounts of Androxal and its metabolites after 1 and 4 hour incubations are reported below at Tables 1-4.

[3] = system: cryopreserved hepatocytes from human; assay: Metabolite profile of Androxal in cryopreserved human hepatocytes; format: in vitro ADME; conditions: LC/MS
Method: as §1, §2, §3
(§7) Chemical degradation control samples were included to evaluate the possibility of chemical degradation of Androxal® in the absence of cells. Equal volumes of 2× Androxal® dosing solution (6 and 60 μM) and CYP buffer were combined and incubated for 1 and 4 hours.
as §4, §5, §6

[4] = system: cryopreserved hepatocytes from cynomolgus monkey; assay: Metabolite profile of Androxal in cryopreserved cynomolgus monkey hepatocytes; format: in vitro ADME; conditions: LC/MS
Method: as §1, §2, §3, §7, §4, §5, §6

[5] = system: cryopreserved hepatocytes from Sprague-Dawley rat; assay: Metabolite profile of Androxal in cryopreserved Sprague-Dawley rat hepatocytes; format: in vitro ADME; conditions: LC/MS
Method: as §1, §2, §3, §7, §4, §5, §6

[6] = incubations containing 3 μM Androxal for 1 hour
[7] = incubations containing 3 μM Androxal for 4 hours
[8] = incubations containing 30 μM Androxal for 4 hours
[9] = incubations containing 30 mM Androxal for 1 hour

Structure (SMILES): CCN(CC)CCOc1ccc(/C(=C(/Cl)c2ccccc2)c2ccccc2)cc1 (single isomer, unassigned) [cis isomer, cis-clomiphene]
- residual blood levels [1]: in excess of one month

Structure (SMILES): CCNCCOc1ccc(/C(=C(/Cl)c2ccccc2)c2ccccc2)cc1 [C24H24NOCl, N-desethyl-trans-clomiphene]
- relative amount, Beagle dog [2, 6]: 25.9
- relative amount, Beagle dog [2, 7]: 18.6
- relative amount, Beagle dog [2, 8]: 723.5
- relative amount, Human [3, 6]: 48.3
- relative amount, Human [3, 7]: 43.4
- relative amount, Human [3, 8]: 1262.4
- relative amount, Human [3, 9]: 699.8
- relative amount, Cyno. monkey [4, 6]: 22.3
- relative amount, Cyno. monkey [4, 8]: 2175.0
- relative amount, Cyno. monkey [4, 9]: 1029.8
- relative amount, SD Rat [5, 8]: 673.8
- relative amount, SD Rat [5, 9]: 336.6

Structure (SMILES): CCN(CC)CCOc1ccc(/C(=C(\Cl)c2ccccc2)c2ccccc2)cc1 [C26H28ClNO, trans-clomiphene]
- relative amount, Beagle dog [2, 6]: 148.9
- relative amount, Beagle dog [2, 7]: 103.2
- relative amount, Beagle dog [2, 8]: 4989.3
- relative amount, Beagle dog [2, 9]: 6227.3
- relative amount, Human [3, 6]: 625.8
- relative amount, Human [3, 7]: 285.4
- relative amount, Human [3, 8]: 4012.5
- relative amount, Human [3, 9]: 4297.8
- relative amount, Cyno. monkey [4, 6]: 279.1
- relative amount, Cyno. monkey [4, 7]: 84.2
- relative amount, Cyno. monkey [4, 8]: 2828.5
- relative amount, Cyno. monkey [4, 9]: 3166.4
- relative amount, SD Rat [5, 6]: 240.0
- relative amount, SD Rat [5, 7]: 182.5
- relative amount, SD Rat [5, 8]: 3123.3
- relative amount, SD Rat [5, 9]: 3166.8

Structure (SMILES): CCN(CC)CCOc1ccc(/C(=C(/Cl)c2ccccc2)c2ccc(O)cc2)cc1 [C26H28NO2Cl, 4-hydroxy-trans-clomiphene]
- relative amount, Beagle dog [2, 6]: 218.8
- relative amount, Beagle dog [2, 7]: 103.4
- relative amount, Beagle dog [2, 9]: 1535.2
- relative amount, Human [3, 6]: 240.3
- relative amount, Human [3, 7]: 247.0
- relative amount, Cyno. monkey [4, 6]: 239.4
- relative amount, Cyno. monkey [4, 7]: 43.4
- relative amount, SD Rat [5, 6]: 100.9
- relative amount, SD Rat [5, 7]: 31.1
- relative amount, SD Rat [5, 9]: 992.7

Structure (SMILES): CCN(CC)CCOc1ccc(C(c2ccc(O)c(O)c2)C(Cl)c2ccccc2)cc1 (centres unmarked) [C26H30NO3Cl]
- relative amount, Beagle dog ([2]; incubations containing 30 μM Androxal for 4 hours, retention time 22.7): 65.9
- relative amount, Beagle dog ([2]; incubations containing 30 μM Androxal for 4 hours, retention time 22.95): 43.7
